Where two headings read alike, the source gives them in different places.
Test: Phase I clinical trial, human plasma pharmacokinetics of oral Compound 1
Type: in vivo
Conditions: human, plasma, po; for Vd/F: read-out: Vz/F
Procedure: A human clinical study was initiated at a starting dose of 50 mg/m^2. Subjects had recurrent cancer refractory to available systemic therapy. Compound 1 was administered daily by mouth in tablet form for 21 consecutive days in a 28 day cycle to each enrolled subject. […] Plasma was collected pre-dose only for cycle 1 day 8. […] Patients were men and women with metastatic cancer, ranged in age from 45 to 85 years, and received doses ranging from 50 mg/m^2 to 340 mg/m^2, with a total daily dose of 100-740 mg (Tables 2A and 2B).

[1] = 50 mg/m^2, Day 19, Cohort 1, Subject 101, 50 mg/m^2 (100 mg), oral daily
[2] = 100 mg/m^2, Day 01, Cohort 2, Subject 201, 100 mg/m^2 (160 mg), oral daily
[3] = 100 mg/m^2, Day 21, Cohort 2, 100 mg/m^2 (160 mg), oral daily
[4] = 100 mg/m^2, Day 21, Cohort 2, Subject 201, 100 mg/m^2 (160 mg), oral daily
[5] = 165 mg/m^2, Day 01, Cohort 3, Subject 301, 165 mg/m^2 (300 mg), oral daily
[6] = 165 mg/m^2, Day 21, Cohort 3, 165 mg/m^2 (300 mg), oral daily
[7] = 165 mg/m^2, Day 21, Cohort 3, Subject 301, 165 mg/m^2 (300 mg), oral daily
[8] = 245 mg/m^2, Day 01, Cohort 4, N = 6, 245 mg/m^2 (340-540 mg), oral daily
[9] = 340 mg/m^2, Day 01, Cohort 5, 340 mg/m^2 (480-620 mg), oral daily
[10] = 340 mg/m^2, Day 01, Cohort 5, N = 2, 340 mg/m^2 (480-620 mg), oral daily
[11] = 340 mg/m^2, Day 21, Cohort 5 (BID), Subject 508, 340 mg/m^2 (330 mg), oral twice daily
[12] = 340 mg/m^2, Day 21, Cohort 5, 340 mg/m^2 (620 mg), oral daily
[13] = 340 mg/m^2, Day 21, Cohort 5, Subject 503, 340 mg/m^2 (620 mg), oral daily
[14] = Day 21, Cohort 4, 176-245 mg/m^2 (340-540 mg), oral daily

`C[C@H](O)C(=O)N1CCC(CCn2c(Sc3cc4c(cc3Br)OCO4)nc3c(N)ncnc32)CC1` [Compound 1, (2S)-1-[4-(2-{6-amino-8-[(6-bromo-1,3-benzodioxol-5-yl)thio]-9H-purin-9-yl}ethyl)piperidin-1-yl]-1-oxopropan-2-ol] showed an AUC(0-t) (50 mg/m^2, Day 19, Cohort 1, 50 mg/m^2 (100 mg), oral daily, read-out: AUC(0-24)) of 22000 ng·h/mL, a Vd/F (50 mg/m^2, Day 19, Cohort 1, 50 mg/m^2 (100 mg), oral daily) of 88 L and a Cmax [1] of 1700 ng/mL. For the same molecule, the Tmax [1] was 1 h, the half-life [1] was 13.4 h and the Cmax [2] was 2950 ng/mL. The Tmax [2] was 2 h, the half-life [2] was 9.8 h and the AUC(0-inf) [3] was 67300 ng·h/mL. The AUC(0-t) (100 mg/m^2, Day 21, Cohort 2, 100 mg/m^2 (160 mg), oral daily, read-out: AUC(0-24)) was 49800 ng·h/mL, the Vd/F [3] was 52 L and the Cmax [4] was 3180 ng/mL. It also gave a Tmax [4] of 6 h, a half-life [4] of 11.2 h and a Cmax [5] of 6870 ng/mL. For the same molecule, the Tmax [5] was 4 h, the half-life [5] was 11.5 h and the AUC(0-inf) [6] was 308000 ng·h/mL. It also gave an AUC(0-t) (165 mg/m^2, Day 21, Cohort 3, 165 mg/m^2 (300 mg), oral daily, read-out: AUC(0-24)) of 200000 ng·h/mL, a Vd/F [6] of 30.4 L and a Cmax [7] of 11800 ng/mL. It also gave a Tmax [7] of 8 h, a half-life [7] of 14 h and an AUC(0-inf) (240 mg, Day 01, Cohort 6 (BID), 240 mg, oral twice daily, based on a single 12-hour dosing interval) of 55000 ng·h/mL. The AUC(0-t) (240 mg, Day 01, Cohort 6 (BID), 240 mg, oral twice daily, read-out: AUC(0-12)) was 38200 ng·h/mL, the Vd/F (240 mg, Day 01, Cohort 6 (BID), 240 mg, oral twice daily) was 39.6 L and the AUC(0-inf) (240 mg, Day 21, Cohort 6 (BID), 240 mg, oral twice daily, based on a single 12-hour dosing interval) was 95100 ng·h/mL. The AUC(0-t) (240 mg, Day 21, Cohort 6 (BID), 240 mg, oral twice daily, read-out: AUC(0-12)) was 67600 ng·h/mL, the Vd/F (240 mg, Day 21, Cohort 6 (BID), 240 mg, oral twice daily) was 34.6 L and the Cmax [8] was 7840 ng/mL. The Tmax [8] was 2.5 h, the half-life [8] was 10.8 h and the AUC(0-inf) (340 mg/m^2, Day 01, Cohort 5 (BID), 340 mg/m^2 (270-370 mg), oral twice daily, based on a single 12-hour dosing interval) was 107000 ng·h/mL. The AUC(0-t) (340 mg/m^2, Day 01, Cohort 5 (BID), 340 mg/m^2 (270-370 mg), oral twice daily, read-out: AUC(0-12)) was 62100 ng·h/mL, the Vd/F (340 mg/m^2, Day 01, Cohort 5 (BID), 340 mg/m^2 (270-370 mg), oral twice daily) was 28.4 L and the AUC(0-inf) [9] was 334000 ng·h/mL. For the same molecule, the AUC(0-t) (340 mg/m^2, Day 01, Cohort 5, 340 mg/m^2 (480-620 mg), oral daily, read-out: AUC(0-24)) was 233000 ng·h/mL, the Vd/F [9] was 51.4 L and the Cmax [10] was 16300 ng/mL. The Tmax [10] was 3 h, the half-life [10] was 14.1 h and the AUC(0-inf) (340 mg/m^2, Day 21, Cohort 5 (BID), 340 mg/m^2 (330 mg), oral twice daily, based on a single 12-hour dosing interval) was 96300 ng·h/mL. It also gave an AUC(0-t) (340 mg/m^2, Day 21, Cohort 5 (BID), 340 mg/m^2 (330 mg), oral twice daily, read-out: AUC(0-12)) of 69500 ng·h/mL, a Vd/F (340 mg/m^2, Day 21, Cohort 5 (BID), 340 mg/m^2 (330 mg), oral twice daily) of 45.7 L and a Cmax [11] of 11000 ng/mL. For the same molecule, the Tmax [11] was 1 h, the half-life [11] was 6.7 h and the AUC(0-inf) [12] was 610000 ng·h/mL. It also gave an AUC(0-t) (340 mg/m^2, Day 21, Cohort 5, 340 mg/m^2 (620 mg), oral daily, read-out: AUC(0-24)) of 363000 ng·h/mL, a Vd/F [12] of 36.8 L and a Cmax [13] of 25600 ng/mL. For the same molecule, the Tmax [13] was 1 h, the half-life [13] was 19.3 h and the AUC(0-inf) [14] was 202000 ng·h/mL. For the same molecule, the AUC(0-t) (Day 21, Cohort 4, 176-245 mg/m^2 (340-540 mg), oral daily, read-out: AUC(0-24)) was 127000 ng·h/mL and the Vd/F [14] was 77.9 L.

From patent publication US20120277257A1, “Methods of Treating Diseases, Pharmaceutical Compositions, and Pharmaceutical Dosage Forms” (MYREXIS, INC., priority 2009, published 2012)
